According to patent US20020037858A1, “Pharmaceutical compositions comprising moexipril magnesium” (priority 2000, published 2002):

Test: Stability of moexipril magnesium salt in solid compositions
Type: physicochemical
Conditions: solid compositions without an alkaline stabilizing compound in the final composition

## CCOC(=O)[C@H](CCc1ccccc1)N[C@@H](C)C(=O)N1Cc2cc(OC)c(OC)cc2C[C@H]1C(=O)O.[Mg] [moexipril magnesium]
  stability of the salt: sufficiently stable to enable stable solid compositions
